Laboratory results as given in patent EP4714952A1, “COMPOUND AND USE THEREOF” (Autobio Group Co., Ltd., priority 2023, dated 2025).
Where two headings read alike, the source gives them in different places.

Key:
[1] = molecular target: CYP2C9 (Homo sapiens, UniProt P11712); assay: In vitro CYP inhibition in human liver microsomes, CYP2C9
Description: (§3) 1.1 Working solutions (100×) of sample compounds and standard inhibitors were prepared.
(§4) 1.2 Microsomes were removed from a -80°C refrigerator, thawed on ice, labeled with the date, and stored in the refrigerator immediately after use.
(§5) 1.3 20 µL of substrate solution was added to the corresponding wells, while 20 µL of PB (phosphate buffer) was added to the blank wells.
(§6) 1.4 2 µL of sample compound solution and positive control working solution were added to the appropriate wells, while 2 µL of solvent was added to inhibitor-free wells and blank wells.
(§7) 1.5 HLM (human liver microsome) working solution was prepared.
(§8) 1.6 158 µL of HLM working solution was added to all wells of the plate.
(§9) 1.7 The plate was pre-incubated in a 37°C water bath for approximately 10 minutes.
(§10) 1.8 NADPH (nicotinamide adenosine denucleotide hydro-phosphoric acid, i.e. reduced form coenzyme II) cofactor solution was prepared.
(§11) 1.9 20 µL of NADPH cofactor solution was added to all incubation wells.
(§12) 1.10 The solution was mixed and the plate was placed in 37°C water bath to incubate CYP for 10 minutes.
(§13) 1.11 At designated time points, the reaction was terminated by adding 400 µL of cold stopping solution.
(§14) 1.13 200 µL of the supernatant was transferred into 100 µL of HPLC-grade water and vortexed for 10 minutes.
(§15) 1.14 Samples were subjected to LC/MS/MS analysis.
(§16) Concentration-inhibition percentage curves of the control compound and test compounds were plotted using XL Fit or SigmaPlot, followed by nonlinear regression analysis.
(§17) IC50 values were determined using a 3 or 4 parameter logistic equation.

[2] = molecular target: CYP2D6 (Homo sapiens, UniProt P10635); assay: In vitro CYP inhibition in human liver microsomes, CYP2D6
Description: as §3, §4, §5, §6, §7, §8, §9, §10, §11, §12, §13, §14, §15, §16, §17

[3] = molecular target: CYP2C19 (Homo sapiens, UniProt P33261); assay: In vitro CYP inhibition in human liver microsomes, CYP2C19
Chain of CYP2C19 (P33261 whole entry): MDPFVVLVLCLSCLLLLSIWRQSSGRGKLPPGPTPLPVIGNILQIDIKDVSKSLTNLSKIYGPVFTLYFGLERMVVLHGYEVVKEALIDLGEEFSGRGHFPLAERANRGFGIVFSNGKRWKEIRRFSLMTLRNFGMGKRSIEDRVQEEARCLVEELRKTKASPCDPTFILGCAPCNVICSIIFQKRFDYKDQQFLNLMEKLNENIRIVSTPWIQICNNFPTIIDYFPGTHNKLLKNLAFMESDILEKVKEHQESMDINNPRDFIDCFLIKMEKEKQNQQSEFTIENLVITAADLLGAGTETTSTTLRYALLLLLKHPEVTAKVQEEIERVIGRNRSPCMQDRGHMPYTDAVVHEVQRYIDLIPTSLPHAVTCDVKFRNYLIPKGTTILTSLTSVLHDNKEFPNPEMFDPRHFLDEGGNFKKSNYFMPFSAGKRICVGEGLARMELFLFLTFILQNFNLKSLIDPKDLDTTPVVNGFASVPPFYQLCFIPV
Description: as §3, §4, §5, §6, §7, §8, §9, §10, §11, §12, §13, §14, §15, §16, §17

[4] = molecular target: CYP1A2 (Homo sapiens, UniProt P05177); assay: In vitro CYP inhibition in human liver microsomes, CYP1A2
Chain of CYP1A2 (P05177 whole entry): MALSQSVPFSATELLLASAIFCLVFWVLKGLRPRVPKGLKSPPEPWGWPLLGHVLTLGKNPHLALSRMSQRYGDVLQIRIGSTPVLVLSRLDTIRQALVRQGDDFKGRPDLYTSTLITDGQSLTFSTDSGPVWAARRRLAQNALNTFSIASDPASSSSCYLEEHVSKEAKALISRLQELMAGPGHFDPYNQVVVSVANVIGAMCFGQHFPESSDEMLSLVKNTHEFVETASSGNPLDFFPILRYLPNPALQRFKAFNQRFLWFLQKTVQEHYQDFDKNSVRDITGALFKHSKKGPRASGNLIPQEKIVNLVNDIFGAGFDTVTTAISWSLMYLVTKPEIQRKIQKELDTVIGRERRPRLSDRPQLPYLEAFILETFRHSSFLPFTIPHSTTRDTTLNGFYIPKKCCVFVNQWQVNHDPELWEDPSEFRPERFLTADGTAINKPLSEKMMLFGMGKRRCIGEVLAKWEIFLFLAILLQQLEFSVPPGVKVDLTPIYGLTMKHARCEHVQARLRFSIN
Description: as §3, §4, §5, §6, §7, §8, §9, §10, §11, §12, §13, §14, §15, §16, §17

[5] = molecular target: T1, PDE3A (Homo sapiens, UniProt Q14432); assay: In vitro inhibitory effect on PDE3A enzyme (AMP-Glo assay); format: biochemical
T1 construct: purchased BPS
T1 sequence (Q14432 whole entry): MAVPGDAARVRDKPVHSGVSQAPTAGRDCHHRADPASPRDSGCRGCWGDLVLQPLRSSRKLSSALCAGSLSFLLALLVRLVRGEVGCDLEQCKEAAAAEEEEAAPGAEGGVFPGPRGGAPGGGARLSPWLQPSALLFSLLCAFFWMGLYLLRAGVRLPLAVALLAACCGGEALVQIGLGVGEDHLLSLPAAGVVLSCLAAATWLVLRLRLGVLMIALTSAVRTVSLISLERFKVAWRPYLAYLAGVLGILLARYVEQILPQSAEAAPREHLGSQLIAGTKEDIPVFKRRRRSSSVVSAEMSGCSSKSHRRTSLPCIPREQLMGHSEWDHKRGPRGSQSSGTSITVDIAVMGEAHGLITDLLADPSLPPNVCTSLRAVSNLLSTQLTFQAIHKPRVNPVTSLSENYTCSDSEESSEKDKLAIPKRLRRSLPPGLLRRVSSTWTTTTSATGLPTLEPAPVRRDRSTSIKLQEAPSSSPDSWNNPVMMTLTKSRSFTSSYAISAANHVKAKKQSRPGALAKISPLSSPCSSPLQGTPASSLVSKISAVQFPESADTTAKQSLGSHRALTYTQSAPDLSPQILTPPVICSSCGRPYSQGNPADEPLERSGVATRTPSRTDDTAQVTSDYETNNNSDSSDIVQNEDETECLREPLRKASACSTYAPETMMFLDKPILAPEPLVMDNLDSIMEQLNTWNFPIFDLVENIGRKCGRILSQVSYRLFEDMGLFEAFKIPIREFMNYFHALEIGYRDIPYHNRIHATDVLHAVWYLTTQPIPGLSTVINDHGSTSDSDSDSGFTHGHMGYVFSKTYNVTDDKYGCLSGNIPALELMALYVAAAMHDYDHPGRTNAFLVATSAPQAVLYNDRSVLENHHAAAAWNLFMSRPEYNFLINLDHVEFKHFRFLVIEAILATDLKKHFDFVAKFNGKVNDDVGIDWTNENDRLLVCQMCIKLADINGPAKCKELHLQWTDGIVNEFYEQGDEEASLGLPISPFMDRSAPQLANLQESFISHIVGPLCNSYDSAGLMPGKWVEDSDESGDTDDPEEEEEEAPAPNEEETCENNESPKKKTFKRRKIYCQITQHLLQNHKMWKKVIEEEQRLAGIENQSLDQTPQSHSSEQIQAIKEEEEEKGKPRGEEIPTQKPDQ
Description: (§1) 1. Table 1 Main reagents and consumables for in vitro detection of inhibitory effect
(§2) 2. Preparation of experimental buffers Reaction buffer (5×): 50 mM Tris-HCl (buffer), 50 mM MgCl2, 0.5% BSA, 0.25% Tween-20, pH 7.4, stored at -20°C. 3. […] The starting concentration of the reference substance serial dilution was the Low control, and 1% DMSO-reaction buffer served as the High control. • 3) The enzyme was diluted to the desired concentration with 1× reaction buffer, and 4 µL of the diluted solution was transferred to the assay plate. After centrifugation, the 384-well low dead-volume microplate was sealed with sealing film and incubated in the incubator at 23°C for 15 minutes. • 4) The substrate cAMP was diluted to the desired concentration using 1× reaction buffer, and 5 µL of the diluted solution was transferred to the assay plate. After centrifugation, the plate was sealed again and incubated in the incubator at 23°C for 60 minutes (PDE3A) or 10 minutes (PDE4B1). • 5) Then, 5 µL of Reagent I from the AMP-Glo™ Assay Kit was added to the assay plate. After centrifugation and sealing, the plate was incubated in the incubator at 23°C for 60 minutes. • 6) The detection solution was prepared according to the AMP-Glo™ Assay Kit instructions, and 10 µL of the detection solution was added to the assay plate. After centrifugation and sealing, the plate was incubated in the incubator at 23°C for 60 minutes. • 7) The readout was recorded using a multimode microplate reader. 4. […] 5.

[6] = molecular target: T2, PDE4B1 (Homo sapiens, UniProt Q07343); assay: In vitro inhibitory effect on PDE4B1 enzyme (AMP-Glo assay); format: biochemical
T2 construct: purchased Sigma
T2 sequence (Q07343 whole entry): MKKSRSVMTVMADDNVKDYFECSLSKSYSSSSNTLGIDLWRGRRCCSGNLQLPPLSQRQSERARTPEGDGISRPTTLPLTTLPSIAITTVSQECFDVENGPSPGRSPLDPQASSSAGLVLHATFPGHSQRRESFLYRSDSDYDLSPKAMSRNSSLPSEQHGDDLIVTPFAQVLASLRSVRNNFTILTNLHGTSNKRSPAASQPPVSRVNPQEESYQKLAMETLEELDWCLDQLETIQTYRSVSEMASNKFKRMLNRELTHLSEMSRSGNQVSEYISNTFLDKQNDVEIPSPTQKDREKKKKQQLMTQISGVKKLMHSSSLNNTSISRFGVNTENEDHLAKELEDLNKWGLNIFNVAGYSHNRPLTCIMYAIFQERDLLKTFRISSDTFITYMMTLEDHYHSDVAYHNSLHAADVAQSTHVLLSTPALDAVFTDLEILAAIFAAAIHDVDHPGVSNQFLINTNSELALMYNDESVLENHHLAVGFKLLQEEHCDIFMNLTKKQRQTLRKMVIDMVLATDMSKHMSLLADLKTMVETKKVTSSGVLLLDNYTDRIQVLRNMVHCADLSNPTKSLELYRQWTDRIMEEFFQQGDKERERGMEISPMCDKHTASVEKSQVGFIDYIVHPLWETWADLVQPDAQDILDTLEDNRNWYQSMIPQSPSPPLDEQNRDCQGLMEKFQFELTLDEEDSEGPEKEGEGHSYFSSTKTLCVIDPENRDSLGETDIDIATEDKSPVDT
Description: as §1, §2

[7] = molecular target: CYP3A-M (Homo sapiens, UniProt P08684); assay: In vitro CYP inhibition in human liver microsomes, CYP3A-M
Chain of CYP3A-M (P08684 2-503): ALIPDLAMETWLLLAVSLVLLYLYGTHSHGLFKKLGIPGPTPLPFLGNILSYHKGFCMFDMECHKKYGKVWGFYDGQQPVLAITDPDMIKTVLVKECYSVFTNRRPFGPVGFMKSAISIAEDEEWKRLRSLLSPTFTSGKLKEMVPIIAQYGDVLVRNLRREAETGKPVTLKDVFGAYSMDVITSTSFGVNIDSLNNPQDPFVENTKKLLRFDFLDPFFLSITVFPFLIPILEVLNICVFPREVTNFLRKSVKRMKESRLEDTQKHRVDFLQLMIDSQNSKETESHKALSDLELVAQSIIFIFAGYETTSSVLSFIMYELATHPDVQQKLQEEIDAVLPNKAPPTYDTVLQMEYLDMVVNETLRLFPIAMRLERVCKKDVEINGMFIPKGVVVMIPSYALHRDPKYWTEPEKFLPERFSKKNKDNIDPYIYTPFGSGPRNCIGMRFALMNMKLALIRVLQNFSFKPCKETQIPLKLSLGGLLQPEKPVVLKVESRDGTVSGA
Description: as §3, §4, §5, §6, §7, §8, §9, §10, §11, §12, §16, §17

[8] = AMP-Glo Assay Kit, substrate cAMP, 23°C, 60 minutes, read-out: PDE3A (IC50)
[9] = AMP-Glo Assay Kit, substrate cAMP, 23°C, 10 minutes, read-out: PDE4B1 (IC50)

Chain of CYP2D6 (P10635 whole entry): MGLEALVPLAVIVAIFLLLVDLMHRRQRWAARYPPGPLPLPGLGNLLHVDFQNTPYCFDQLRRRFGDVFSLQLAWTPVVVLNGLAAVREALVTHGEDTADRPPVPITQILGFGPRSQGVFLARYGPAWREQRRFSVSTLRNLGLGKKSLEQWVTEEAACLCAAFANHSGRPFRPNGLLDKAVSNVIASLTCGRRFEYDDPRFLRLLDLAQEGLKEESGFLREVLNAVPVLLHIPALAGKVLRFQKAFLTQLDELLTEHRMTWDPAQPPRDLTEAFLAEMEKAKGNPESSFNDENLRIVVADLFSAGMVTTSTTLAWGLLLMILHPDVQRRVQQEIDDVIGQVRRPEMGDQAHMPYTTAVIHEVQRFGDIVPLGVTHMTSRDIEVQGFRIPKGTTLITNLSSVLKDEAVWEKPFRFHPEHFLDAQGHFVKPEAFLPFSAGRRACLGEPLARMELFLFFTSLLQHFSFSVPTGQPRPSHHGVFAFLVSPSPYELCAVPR
Chain of CYP2C9 (P11712 whole entry): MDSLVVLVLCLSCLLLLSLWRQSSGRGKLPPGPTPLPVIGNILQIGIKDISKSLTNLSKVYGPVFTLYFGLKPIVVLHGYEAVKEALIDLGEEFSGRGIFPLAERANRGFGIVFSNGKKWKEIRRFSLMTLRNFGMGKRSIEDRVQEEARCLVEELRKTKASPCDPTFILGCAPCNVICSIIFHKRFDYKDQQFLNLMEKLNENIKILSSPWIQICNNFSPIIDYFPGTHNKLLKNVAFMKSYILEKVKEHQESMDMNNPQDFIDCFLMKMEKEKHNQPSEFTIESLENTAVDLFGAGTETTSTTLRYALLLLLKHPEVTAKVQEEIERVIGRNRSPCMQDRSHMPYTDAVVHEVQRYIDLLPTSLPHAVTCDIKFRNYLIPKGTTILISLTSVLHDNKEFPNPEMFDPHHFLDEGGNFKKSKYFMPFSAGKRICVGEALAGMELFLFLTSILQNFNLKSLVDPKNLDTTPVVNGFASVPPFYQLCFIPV

Compound	IC50 [1]	IC50 [2]	IC50 [3]	IC50 [4]	IC50 [5]	IC50 [6]	also measured
CCOc1cc2c(cc1OC)-c1cc(N(CCNC(N)=O)c3c(C)cc(C)cc3C)nc(=O)n1CC2 [Compound 84]	4520 nM	> 50000 nM	> 50000 nM	> 50000 nM			IC50 [5, 8]: 0.008 nM; IC50 [6, 9]: 7.5 nM; IC50 at 10 min ([7]; human liver microsomes): > 50000 nM
CCOc1cc2c(cc1OC)-c1cc(N(c3c(C)cc(C)cc3C)C(CO)CO)nc(=O)n1CC2 [Compound 80]	10100 nM	> 50000 nM	31500 nM	> 50000 nM	0.0028 nM	7.4 nM	IC50 at 10 min ([7]; microsomes): 43500 nM
CCOc1cc2c(cc1OC)-c1cc(N(CCO)c3c(C)cc(C)cc3C)nc(=O)n1CC2 [Compound 75]	8310 nM	> 50000 nM	30600 nM	> 50000 nM			IC50 at 10 min ([7]; microsomes): 33200 nM
CCOc1cc2c(cc1OC)-c1cc(N(CCC(=O)NCCO)c3c(C)cc(C)cc3C)nc(=O)n1CC2 [Compound 82]	9350 nM	> 50000 nM	> 50000 nM	> 50000 nM	0.088 nM	14.2 nM	IC50 at 10 min ([7]; microsomes): 42800 nM
COc1cc2c(cc1OC1CCOC1)CCn1c-2cc(=Nc2c(C)cc(C)cc2C)n(CCNC(N)=O)c1=O (stereo not drawn) [Compound 25]					4.47 nM	381 nM	
COc1cc2c(cc1OC)-c1cc(N(CCNC(=O)N3CCOCC3CO)c3c(C)cc(C)cc3C)nc(=O)n1CC2 (stereo not drawn) [Compound 48]					0.16 nM	579 nM	
CCOc1cc2c(cc1OC)-c1cc(N(CC(=O)O)c3c(C)cc(C)cc3C)nc(=O)n1CC2 [Compound 76]					0.1 nM	172 nM	
COc1cc2c(cc1OC)-c1cc(N(CCNC(N)=O)c3c(C)cc(C)cc3C)nc(=O)n1CC2 [Compound 45]					0.032 nM	100 nM	
COc1cc2c(cc1OC)C(C)Cn1c-2cc(=Nc2c(C)cc(C)cc2C)n(CCNC(N)=O)c1=O (stereo not drawn) [Compound 9]					5.66 nM	114 nM	
COc1cc2c(cc1OC)-c1cc(=Nc3c(C)cc(C)cc3C)n(CCNC(=O)c3cnc4n3CCC4)c(=O)n1CC2 [Compound 36]					0.9 nM	530 nM	
CCOc1cc2c(cc1OC)-c1cc(N(CCCO)c3c(C)cc(C)cc3C)nc(=O)n1CC2 [Compound 60]	3870 nM	> 50000 nM	42100 nM	> 50000 nM	0.0033 nM	6.3 nM	IC50 at 10 min ([7]; microsomes): > 50000 nM
COc1cc2c(cc1OC)-c1cc(N(CCC#N)c3c(C)cc(C)cc3C)nc(=O)n1CC2 [Compound 1]					0.11 nM	298 nM	
CCOc1cc2c(cc1OC)-c1cc(=Nc3c(C)cc(C)cc3C)n(CCNC(=O)NOC)c(=O)n1CC2 [Compound 85]					0.31 nM	40.5 nM	
COc1cc2c(cc1OC)-c1cc(N(CCNC(=O)c3c(O)nnn3C)c3c(C)cc(C)cc3C)nc(=O)n1CC2 [Compound 44]					0.081 nM	223 nM	
CCOc1cc2c(cc1OC)-c1cc(N(CCN)c3c(C)cc(C)cc3C)nc(=O)n1CC2 [Compound 42]					0.62 nM	75.3 nM	
CCOc1cc2c(cc1OC)-c1cc(N(CCC(=O)O)c3c(C)cc(C)cc3C)nc(=O)n1CC2 [Compound 61]	> 50000 nM	> 50000 nM	> 50000 nM	> 50000 nM	0.0061 nM	11.1 nM	IC50 at 10 min ([7]; microsomes): > 50000 nM
CCOc1cc2c(cc1OC)-c1cc(=Nc3c(C)cc(C)cc3C)n(CCNC(=O)c3ccnc(Cl)c3)c(=O)n1CC2 [Compound 29]					4.78 nM	423 nM	
COc1cc2c(cc1OC)-c1cc(=Nc3c(C)cc(C)cc3C)n(CCNC(N)=O)c(=O)n1CCO2 [Compound 22]					3.3 nM	728 nM	
CCOc1cc2c(cc1OC)-c1cc(N(CCNC(=O)c3c[nH]nn3)c3c(C)cc(C)cc3C)nc(=O)n1CC2 [Compound 64]							IC50 [5, 8]: 0.019 nM; IC50 [6, 9]: 8.4 nM
COc1cc2c(cc1OC)-c1c/c(=N\c3c(C)cc(C)cc3C)n(CCNC(N)=O)c(=O)n1CC2 [Ensifentrine, reference compound]	3520 nM	41500 nM	23200 nM	> 50000 nM			IC50 [5, 8]: 0.17 nM; IC50 [6, 9]: 102 nM; IC50 at 10 min ([7]; human liver microsomes): 8600 nM
COc1cc2c(cc1OC)-c1cc(=Nc3c(C)cc(C)cc3C)n(CCNC(N)=O)c(=O)n1CCS2 [Compound 20]					24.9 nM	251 nM	
COc1cc2c(cc1OC)-c1cc(=Nc3c(C)cc(C)cc3C)n(CCNC(=O)c3cccn(C)c3=O)c(=O)n1CC2 [Compound 39]					0.72 nM	18.7 nM	
COc1cc2c(cc1OC)-c1cc(N(c3c(C)cc(C)cc3C)C3CN(C(=O)c4ncon4)C3)nc(=O)n1CC2 [Compound 51]							IC50 [5, 8]: 89.5 nM; IC50 [6, 9]: 1450 nM
COc1cc2c(cc1OC)-c1cc(N(c3c(C)cc(C)cc3C)C3CN(C(=O)c4[nH]nnc4C)C3)nc(=O)n1CC2 [Compound 50]					0.005 nM	67.4 nM	
CCOc1cc2c(cc1OC)-c1cc(N(CCNC(=O)NOC)c3c(C)cc(C)cc3C)nc(=O)n1CC2 [Compound 86]	3130 nM	29700 nM	29100 nM	> 50000 nM			IC50 [5, 8]: 0.034 nM; IC50 [6, 9]: 7.9 nM; IC50 at 10 min ([7]; human liver microsomes): 1630 nM
COc1cc2c(cc1OC)-c1cc(N(CCC(C)(C)O)c3c(C)cc(C)cc3C)nc(=O)n1CC2 [Compound 18]							IC50 [5, 8]: 0.088 nM; IC50 [6, 9]: 213 nM
